Test results reported in US7332482B2, “Method for treating benign prostatic hyperplasia” (BioXell S.p.A., priority 2003, dated 2008).
Entries after “also recorded” stand apart in the source; their conditions may differ. Marks after values point to notes of the source that are not given here.

Experiments:
[1] = biological target: T1, AR (Homo sapiens, UniProt P10275); assay: [3H]R1881 binding assay on cytosol fractions of BPH fragments; design: from tissue; host or cells: human BPH prostatic tissue, cytosol fraction
T1 sequence (P10275 1-920): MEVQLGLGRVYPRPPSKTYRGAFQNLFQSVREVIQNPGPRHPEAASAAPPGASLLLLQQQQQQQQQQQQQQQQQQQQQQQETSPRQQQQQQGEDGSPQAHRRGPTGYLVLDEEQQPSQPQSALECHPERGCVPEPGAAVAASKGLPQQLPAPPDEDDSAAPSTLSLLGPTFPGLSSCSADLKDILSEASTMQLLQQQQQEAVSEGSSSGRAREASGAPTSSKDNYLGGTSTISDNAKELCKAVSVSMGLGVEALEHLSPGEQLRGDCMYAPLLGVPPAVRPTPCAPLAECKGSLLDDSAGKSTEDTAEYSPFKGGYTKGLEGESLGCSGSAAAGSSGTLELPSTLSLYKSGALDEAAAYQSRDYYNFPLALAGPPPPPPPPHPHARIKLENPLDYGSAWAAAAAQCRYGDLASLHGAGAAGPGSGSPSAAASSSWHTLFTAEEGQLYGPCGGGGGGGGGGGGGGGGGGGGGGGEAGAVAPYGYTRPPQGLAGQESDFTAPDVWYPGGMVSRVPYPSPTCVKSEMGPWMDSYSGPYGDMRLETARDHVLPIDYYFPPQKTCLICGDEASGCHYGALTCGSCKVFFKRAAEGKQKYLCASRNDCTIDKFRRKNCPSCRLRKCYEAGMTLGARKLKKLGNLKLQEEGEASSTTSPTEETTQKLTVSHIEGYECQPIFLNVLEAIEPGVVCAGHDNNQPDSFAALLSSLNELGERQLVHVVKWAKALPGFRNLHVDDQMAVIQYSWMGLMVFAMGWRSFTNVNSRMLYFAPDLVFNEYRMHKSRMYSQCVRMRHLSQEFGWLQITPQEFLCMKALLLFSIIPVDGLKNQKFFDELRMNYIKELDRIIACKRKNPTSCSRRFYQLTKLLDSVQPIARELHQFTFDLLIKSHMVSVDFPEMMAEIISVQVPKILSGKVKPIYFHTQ
Procedure: Prostatic tissues for binding assay were obtained from patients who underwent suprapubic adenomectomy for BPH. No pharmacological treatment was performed in the 3 months preceding surgery. After surgery, the tissues were immediately placed in liquid nitrogen and stored at −80° C. until processing.
Protein content was determined by the known method of Bradford, using BSA as a standard.

[2] = test system: BPH cells; assay: BPH cell proliferation assay; format: cell-based, human; conditions: 48 h; for BPH cell proliferation increased by stimulus: T 10 nM or GF 10 ng/ml; for effect on DHT-stimulated BPH cell proliferation: DHT 10 nM; for effect on DHT-stimulated BPH cell proliferation / effect on T-stimulated BPH cell proliferation: Compound A 1 nM, F 1 nM, Cyp 100 nM; for effect on T-stimulated BPH cell proliferation: T 10 nM
Procedure: (§1) Human BPH cells, prepared, maintained and used as previously described in Crescioli C, et al. Journal of Clinical and Endocrinology Metabolism (2000) 85 p 2576-2583, were obtained from prostate tissues derived from 5 patients, who underwent suprapubic adenomectomy for BPH, after informed consent and approval by the Local Ethical Committee.
For all cell proliferation assay, 4×10^4 BPH cells were seeded onto 12-well plates in their growth medium, starved in red- and serum-free medium containing 0.1% BSA for 24 h, and then treated with specific stimuli for 48 h. Cells in phenol red- and serum-free medium containing 0.1% BSA were used as controls. Thereafter, cells were trypsinized, and each experimental point was derived from hemocytometer counting, averaging at least six different fields for each well, as previously reported (see Crescioli C, et al. Journal of Clinical and Endocrinology Metabolism (2000) 85 p 2576-2583). […] Growth assays were also carried out using a fixed concentration of androgens (10 nM) with or without Compound A (1 nM, 10 nM) or the anti-androgens finasteride (F, 1 nM) and cyproterone acetate (Cyp, 100 nM). Growth assays were also performed using a fixed concentration of T (10 nM) or GFs (10 ng/ml) with or without Compound A (10 nM). In the same experiment, each experimental point was repeated in triplicate or quadruplicate and experiments were performed 3 times. Results are expressed as % variation (mean±SEM) over the maximal T or GF-induced stimulation.

[3] = test system: BPH cells; assay: In situ end labeling (ISEL) of apoptotic BPH cells; format: cell-based, human; conditions: for change in percentage of apoptotic nuclei vs untreated cells: 48 h, Compound A 10 nM, T 10 nM, GFs 10 ng/ml
Procedure: as §1
ISEL was performed onto BPH cells using Apop Tag in situ apoptosis detection kit peroxydase following the manufacturer's instruction. Cells were incubated with T (10 nM), KGF (10 ng/ml) or Des(1-3)IGF-I (10 ng/ml) with or without Compound A (10 nM). The percentage of apoptotic cells (the number of stained cells divided by the total number of cells) was calculated in at least five separate fields per slide in five different slides. Results are expressed as mean±SEM from three separate experiments.

[4] = biological target: T2, 5α reductase type 1 (Homo sapiens, UniProt P18405); assay: 5α reductase inhibition test in CHO 1827 cells; format: cell-based; conditions: CHO cells transfected with type 1, n=3
T2 construct: host or cells: CHO 1827
T2 sequence (P18405 1-259): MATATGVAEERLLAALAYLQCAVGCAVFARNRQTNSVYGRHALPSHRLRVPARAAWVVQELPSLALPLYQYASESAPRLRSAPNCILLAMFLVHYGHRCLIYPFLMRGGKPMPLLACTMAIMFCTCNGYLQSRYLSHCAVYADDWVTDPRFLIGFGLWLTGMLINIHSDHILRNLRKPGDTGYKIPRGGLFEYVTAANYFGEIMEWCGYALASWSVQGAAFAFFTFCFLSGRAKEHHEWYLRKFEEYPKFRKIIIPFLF
Procedure: (§2) CHO-1827 and CHO-1829 cells, transfected with 5α reductase type 1 (5αR-1) or type 2 (5αR-2), respectively (see Steers W. Urology (2001) 58 p 17-24), were maintained in Ham's F12 medium supplemented with 5% FCS.
(§3) 5α reductase inhibition assay was performed using CHO 1827 cells, transfected with 5αR-1, or CHO 1829 cells, transfected with 5αR-2, as described (see Guarna A, et al. Journal of Medicinal Chemistry (2000) 43 3718-3735.). Compound A was added in a concentration range from 10^−9 to 10^−5 M, using finasteride as a control inhibitor in each experiment.

[5] = biological target: T3, 5α reductase type 2 (Homo sapiens, UniProt P31213); assay: 5α reductase inhibition test in CHO 1829 cells; format: cell-based; conditions: CHO cells transfected with type 2, n=3
T3 construct: host or cells: CHO 1829
T3 sequence (P31213 1-254): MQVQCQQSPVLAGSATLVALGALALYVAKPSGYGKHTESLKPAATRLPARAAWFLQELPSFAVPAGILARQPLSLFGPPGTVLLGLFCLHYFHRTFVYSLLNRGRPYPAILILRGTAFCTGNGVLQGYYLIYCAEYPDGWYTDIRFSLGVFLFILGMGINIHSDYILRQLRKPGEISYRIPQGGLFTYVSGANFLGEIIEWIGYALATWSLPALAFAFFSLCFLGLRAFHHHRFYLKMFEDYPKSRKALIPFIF
Procedure: as §2, §3

[6] = test system: rat ventral prostate; assay: Clusterin expression (Northern, immunohistochemistry) and TUNEL in rat ventral prostate; format: in vivo; conditions: orchidectomized T-supplemented rats; Compound A 300 and 100 μg/Kg, F 40 mg/Kg
Procedure: Total RNA was extracted using RNAFast from Molecular System (San Diego, Calif.). Blotting, labelling, hybridization conditions and probes (rat clusterin 1.5 Kb full-length cDNA and GAPDH 1.2 Kb full-length cDNA) were performed according to the reported procedures (Bettuzzi et al, Biochemical Journal, (1989), 257, p 293-296 and Marinelli et al, Biochemistry and Cell Biology, (1994), 72, p 515-521). Quantitation of the autoradiograms was obtained by densitometric scanning using an LKB Ultrascan XL densitometer.
All the cryostatic sections obtained from controls and treated rats were processed in parallel as previously described (Astancolle et al, Journal of Endocrinology, (2000), 167, p 197-204). For every experimental condition, 3 alternate sections from 3 different rat prostates were examined. […] Counterstaining was performed with haematoxylin, and cover slips were mounted with Eukitt (O. Kindler GmbH & Co, Germany). Digital high-magnification colour images were acquired by a CCD camera through the microscope.
DNA fragmentation in prostate cryostatic sections, assessed by terminal deoxynucleotidyl transferase (TdT)-mediated dUTP nick end-labelling (TUNEL), was performed using the In Situ Cell Death Detection Kit (POD, Roche) as recommended by the manufacturer. TUNEL positive apoptotic nuclei were documented by digital high-magnification colour images acquired by a CCD camera through the microscope. Counterstaining was performed with eosin, and cover slips were mounted with Eukitt (O Kindler GmbH & Co, Germany).

## C[C@]1(O)CC[C@H]2[C@@H]3CCC4=CC(=O)CCC4=C3C=C[C@@]21C [Compound R1881, reference compound]
[1]
  competition for [3H]-R1881 binding: completely displaced

## C[C@]12CC[C@H]3[C@@H](CCC4=CC(=O)CC[C@@]43C)[C@@H]1CC[C@@H]2O [T, testosterone, reference compound]
[2]
  BPH cell proliferation increased by stimulus: 156±8%
[3]
  change in percentage of apoptotic nuclei vs untreated cells: −27%

## C=C1/C(=C\C=C2/CCC[C@]3(C)[C@@H]([C@H](C)CCCC(C)(C)O)CC[C@@H]23)C[C@@H](O)C[C@@H]1O [calcitriol, 1,25-dihydroxyvitamin D3, reference compound]
[2]; Homo sapiens, read-out: −log IC50, inhibition of BPH cell growth (converted)
  IC50: 0.0631 nM
[2]; unstimulated BPH cells, Imax shared by both secosteroids
  maximal inhibition (Imax) of BPH cell growth: 43±1%

## CC(=O)O[C@]1(C(C)=O)CC[C@H]2[C@@H]3C=C(Cl)C4=CC(=O)[C@@H]5C[C@@H]5[C@]4(C)[C@H]3CC[C@@]21C [cyproterone acetate, reference compound]
[2]
  effect on DHT-stimulated BPH cell proliferation: significantly blocked
  effect on T-stimulated BPH cell proliferation: significantly blocked

## CC(C)(C)NC(=O)[C@H]1CC[C@H]2[C@@H]3CC[C@H]4NC(=O)C=C[C@]4(C)[C@H]3CC[C@]12C [finasteride, 17β-(N,t-butyl)carbamoyl-4-aza-5α-androst-1-en-3-one, reference compound]
[2]
  effect on DHT-stimulated BPH cell proliferation: effective only against T
  effect on T-stimulated BPH cell proliferation: antagonized only T-induced cell growth; also recorded: effective only against T
[4]
  IC50: 659 ± 100 nM
[5]
  IC50: 53.7 ± 11 nM
[6]
  clusterin mRNA expression in ventral prostate (Northern): partially blunted the T-induced down-regulation of clusterin gene expression

B1: KGF: Keratinocyte growth factor from Pepro Tech EC (protein, UniProt P21781 32-194, looked up)
Fibroblast growth factor 7: CNDMTPEQMATNVNCSSPERHTRSYDYMEGGDIRVRRLFCRTQWYLRIDKRGKVKGTQEMKNNYNIMEIRTVAVGIVAIKGVESEFYLAMNKEGKLYAKKECNEDCNFKELILENHYNTYASAKWTHNGGEMFVALNQKGIPVRGKKTKKEQKTAHFLPMAIT
[2]
  BPH cell proliferation increased by stimulus: 183±5%
[3]
  change in percentage of apoptotic nuclei vs untreated cells: −54%
[3]; GF 10 ng/ml or T 10 nM alone, ISEL
  Apoptotic index (%): 8.5 ± 0.42^a %
